The values below come from patent US20220008382A1, “ALCOHOL ANTIDOTE” (Evanium Healthcare GmbH, priority 2018, published 2022).

Each structure is given as a SMILES string. Values after ≈ are worked out from the molar mass of the structure shown.

Series [1] is described as follows: Saturation solubility in dist. water (HPLC), γ-CD complexes. The class given is physicochemical. As to conditions: thermodynamic from solid, saturated solution shaken 60 minutes, HPLC DAD-254 nm.
Method: 10 mg taxifolin (Lavitol® 98.9% purity) was placed in a vial with 5 ml dist. water to make a saturated solution and shaken for 60 minutes. The solution was then transferred to a vial by means of a syringe with an HPLC filter (0.22 μm) and then measured (HPLC DAD-254 nm).
300 mg of the sample was placed in a vial with 5 ml dist. water to produce a saturated solution and shaken for 60 minutes. The solution was then transferred to a vial using a syringe with an HPLC filter (0.22 μm) and then measured undiluted (HPLC DAD-254 nm).
Series [2] is described as follows: Dissolution behaviour, USP apparatus II (paddle). It counts as physicochemical. The note with it: 100 rpm; for Mean release: N=2, 500 ml 0.1 N HCl. As for the experimental part:
In order to check the dissolution behaviour of the final formulations, dissolution studies of the cyclodextrin and the Eudragit formulation against pure taxifolin were carried out.
Method: In order to determine the dissolution behaviour, the usual procedure according to pharmacopoeia was chosen.
USP apparatus II (paddle); 100 rpm; medium: 500 ml 0.1 N HCl; 2 vessels per sample (N=2); 7 sampling points: 0 min, 5 min, 10 min, 15 min, 20 min, 30 min, 60 min; weighed in: formulation as a powder corresponding to 100 mg taxifolin; detection by HPLC
The following formulations were tested: • taxifolin (Ametis Lavitol®, 98.8% purity) • Eudragit® E CSE 2:1 (solid dispersion formulation) • FD β (cyclodextrin formulation)

Series [3] is described as follows: Solubility of taxifolin in organic solvents. The class given is physicochemical.
The nature of series [4]: Solubility of the solid dispersion with Eudragit E in 0.1 N HCl (simulated gastric juices). The class given is physicochemical. As to conditions: simulated gastric fluid, thermodynamic from solid, saturated solution, room temperature, HPLC, read-out: Solubility of taxifolin. As for the experimental part:
The last most important point for comparing the production methods to one another is solubility in simulated gastric juices. That is, the solubility of the complex directly influences bioavailability, because only dissolved active ingredients can pass the epithelial cells of the GI tract
10 mg taxifolin (Lavitol® 98.9% purity) was placed in a vial with 5 ml 0.1 N HCl to make a saturated solution and shaken for 60 minutes. The solution was then transferred into a vial by means of a syringe with an HPLC filter (0.22 μm) and then measured.
Saturated solutions of the samples in 0.1 molar HCl solution were prepared at room temperature. The solution was then transferred to a vial by means of a syringe with an HPLC filter (0.22 μm), appropriately diluted and the taxifolin concentration of the solution was determined by HLPC.

The conditions of series [5]: in vivo; cited from earlier work.
Series [6] in a line: Saturation solubility in dist. water (HPLC), β-CD complexes. The class given is physicochemical. The note with it: distilled water, thermodynamic from solid, saturated solution shaken 60 minutes, HPLC DAD-254 nm, read-out: Solubility of taxifolin. As for the experimental part:
Saturation Solubility in Dist. Water (HPLC)
The last most important point in terms of comparing the production methods to one another is solubility in distilled water. The solubility of the complex has a direct influence on bioavailability, because only dissolved complexes/active ingredients can pass the epithelial cells of the GI tract. Moreover, the samples were examined for rel. substances in order to identify possible degradation of the active ingredient during the production process.
10 mg taxifolin (Lavitol® 98.9% purity) was placed in a vial with 5 ml dist. water to make a saturated solution and shaken for 60 minutes. The solution was then transferred to a vial using a syringe with an HPLC filter (0.22 μm) and then measured undiluted (HPLC DAD-254 nm).
500 mg of the sample was placed in a vial with 6 ml dist. water to make a saturated solution and shaken for 60 minutes. The solution was then transferred to a vial using a syringe with an HPLC filter (0.22 μm), diluted 10:1 with distilled water to prevent oversaturation, and then measured (HPLC DAD-254 nm). The taxifolin concentration was calculated in mg/ml based on the peak area, taking into account the dilution.

Series [7] deals with GABAA receptor β+/α− interface at the amino acid β-265ASN. The note with it: cited from earlier work.
Series [8] deals with GABAA receptor α+/β− interface. The note with it: cited from earlier work.

On to `O=C1c2c(O)cc(O)cc2O[C@H](c2ccc(O)c(O)c2)[C@H]1O` [Taxifolin reference, (+)taxifolin], for which the solubility (usually the dissolved amount per volume that the medium holds) at 60 min in series [1] was 750 µg/mL (≈ 2460 µM); in series [4], 693 µg/mL (≈ 2280 µM); in series [6], 750 µg/mL (≈ 2460 µM). Also, the Mean release in series [2] (5 min) turned out to be 29%; in series [2] (10 min) it was 46%; in series [2] (15 min, listed as taxifolin), 60%; in series [2] (15 min, listed as taxifolin (reference)), 60%; in series [2] (20 min), 69%; in series [2] (30 min), 79%. Besides, in series [2] (60 min), the Mean release came to 92%. The Release in series [2] (5 min, vessel 1, 500 ml 0.1 N HCl) turned out to be 28.2%; in series [2] (5 min, vessel 2, 500 ml 0.1 N HCl), 29.2%; in series [2] (10 min, vessel 1, 500 ml 0.1 N HCl), 46.4%; in series [2] (10 min, vessel 2, 500 ml 0.1 N HCl), 44.8%; in series [2] (15 min, vessel 1, 500 ml 0.1 N HCl), 61.1%; in series [2] (15 min, vessel 2, 500 ml 0.1 N HCl) it was 58.7%. In addition, the Release in series [2] (20 min, vessel 1, 500 ml 0.1 N HCl) was 70.4%; in series [2] (20 min, vessel 2, 500 ml 0.1 N HCl) it was 67.5%; in series [2] (30 min, vessel 1, 500 ml 0.1 N HCl), 80.8%; in series [2] (30 min, vessel 2, 500 ml 0.1 N HCl), 77.4%; in series [2] (60 min, vessel 1, 500 ml 0.1 N HCl), 90.8%; in series [2] (60 min, vessel 2, 500 ml 0.1 N HCl), 93.1%. For the same compound, in series [3], the “Solubility in acetone and ethyl acetate” value was “very soluble”. For the same compound, in series [3], the “Solubility in diethyl ether” value was “insoluble”. Moreover, in series [5], the NOAEL level was 1500 mg/kg.
Turning to `CCO` [ethanol], the “Concentration from which the low-affinity binding site is occupied” value in series [7] is recorded as not below 50 mM. In series [8], the “Concentration from which the high-affinity binding site is occupied” value is reported as not below 3 mM.
